Key:
[1] = test system: Huh7 human hepatocellular carcinoma cells; assay: Cytotoxicity of drug-loaded liposomes (MTT); format: cell-based
Description: Huh7 human hepatocellular carcinoma cells (donation of Prof. Wanqing Liu) were cultured in RPMI-1640 medium complemented with 10% FBS, 100 U/mL penicillin, and […] streptomycin at 37° C. in a humidified 5% CO2 atmosphere. Huh7 cells were seeded in a 96 well plate at a density of 10,000 cells per well and grown to 70% confluence. Huh7 cells were exposed to free drug or liposomal preparations for 3 or 6 h. The cells were rinsed twice with fresh medium and kept in drug-free medium for 72 h. In another experiment, Huh7 cells were incubated with a free Gem, LRSG, LRHG, free Dox, LRD, blank liposomes, free drug mixture, or liposome mixture for 72 h. The medium was then removed, and 15 μL of 5 mg/mL MTT solution and 100 μL media were added to each well and incubated for 4 h at 37° C. Each well was then treated with 100 μL of stop/solubilization solution and agitated at 37° C. overnight. The absorbance of dissolved formazan was measured at 562 nm by a SpectraMax M3 microplate reader (Molecular Devices, Sunnyvale, Calif.).

Huh7 cells [2] = assay: Cellular uptake of drug-loaded liposomes, quantitative analysis; format: cell-based, human; details: Huh7, 50 μM Dox equivalent; evident at 3, 6 and 12 h
Description: Huh7 Cells were seeded in a 12 well plate at a density of 10^5 cells per well. After overnight incubation, the cells were treated with LRHG, LRSG, or free Gem at a concentration equivalent to 50 μM Gem, or with LRD or free Dox at a concentration equivalent to 50 μM Dox. At 3, 6, 12, and 24 h post-treatment, the cells were rinsed twice with cold PBS, trypsinized and collected by centrifugation at 233 rcf. The cell pellets were suspended in PBS and lysed by three cycles of freezing and thawing followed by probe sonication. The protein content in each cell lysate was measured by micro BCA assay. A hundred microliters of cell lysate was mixed with 200 μL of acetonitrile, bath sonicated for 1 h, and centrifuged at 16100 rcf for 30 min to separate a supernatant. The supernatant was evaporated under vacuum overnight and reconstituted in 100 μL of PBS. Dox was detected by the microplate reader at λEx/λEm of 488 nm/580 nm. dFdCTP was detected by HPLC using a 64:36 v/v mixture of two aqueous mobile phases: (i) KH2PO4 10 mM, tetra butyl ammonium bromide (TBABr) 10 mM, pH 7 and 0.25% methanol and (ii) KH2PO4 250 mM, TBABr 10 mM, pH 7 and 15% methanol, run at 1.2 mL/min, and a detection wavelength of 271 nm.

Huh7 cells [3] = assay: Confocal imaging of cellular uptake; format: cell-based, human; details: 10 min, 3 h, 10 h, with or without chloroquine
Description: Huh7 were seeded in a 35 mm glass-bottomed dish (Mat Tek Corp., Ashland, Mass.) at a density of 100,000 cells per dish. At 70% confluence, the cells were treated with free Dox for 10 min or fluorescently labeled liposomes (*LRD, labeled with 25-NBD cholesterol) for 10 min, 3 h or 10 h. At each time point, the cells were rinsed twice with PBS. After nuclei staining with Hoechst 33342 ([…]) for 10 min, the cells were rinsed again with PBS and imaged in medium by a Nikon-A1R confocal microscope (Nikon America Inc., Melville, N.Y.). For selected treatments, chloroquine was added 12 h prior to the treatment. The cells were rinsed with PBS and incubated with the labeled liposomes for confocal imaging.

[4] = pKa and ionization of drug; format: physicochemical; details: internal pH 3.6
[5] = cited from earlier work
[6] = literature (Bornmann et al.); cited from earlier work
[7] = upon systemic administration; cited from earlier work

SMILES | IC50 ([1]; 72 h incubation) [nM] | cellular uptake of Dox (Huh7 cells [2]) | cellular uptake and localisation by confocal microscope imaging (Huh7 cells [3]) | ionized/unionized ratio in the interior of liposomes [4] | pKa [5] | IC50 ([1]; Homo sapiens, Huh-7, 72 h incubation) [nM] | reported maximum tolerated dose [6] [mg/kg] | half-life [7] [min]
COc1cccc2c1C(=O)c1c(O)c3c(c(O)c1C2=O)C[C@@](O)(C(=O)CO)C[C@@H]3O[C@H]1C[C@H](N)[C@H](O)[C@H](C)O1.Cl [Dox, Doxorubicin HCl] | 250 | entering cells more efficiently than LRD | appearing in the nuclei as early as in 10 min | 120,000 | 8.68 |  |  | 
Nc1ccn([C@@H]2O[C@H](CO)[C@@H](O)C2(F)F)c(=O)n1 [Gem, Gemcitabine] |  |  |  |  | 3.6 | 1600 | 16 | 8 to 17

Reference: patent US20220117895A1, “PREPARING LIPOSOMES WITH HIGH DRUG LOADING CAPACITY AND THE USE THEREOF” (Purdue Research Foundation, priority 2019, published 2022)
